Test results published in patent publication US12161632B2, “Compositions and methods of treating cardiac fibrosis with ifetroban” (Cumberland Pharmaceuticals Inc., priority 2014, dated 2024).
Counter-ions that a name gives are not always drawn.

Assays:
[1] = system: right ventricle gene expression; assay: Right ventricle gene expression, Affymetrix Mouse Gene 2.0 arrays (Example IV); assay type: in vivo, mice; conditions: sham surgery mice, 25 mg/kg/day, 2 weeks
Protocol: FVB/N mice or mice with a GFP macrophage-specific lineage tracing marker (LysM-Cre) underwent pulmonary banding to directly increase load stress (or sham surgery for controls), and starting the following day received either vehicle or the thromboxane receptor antagonist Ifetroban sodium in their drinking water (25 mg/kg/day). After 2 weeks, noninvasive hemodynamics were obtained by transthoracic echocardiography and invasive hemodynamics were obtained by pressure-volume catheterization of the right heart prior to sacrifice. Hearts were assessed for fibrosis and macrophage infiltration. RNA from right ventricles were isolated and used for unbiased discovery of altered gene expression using Affymetrix Mouse Gene 2.0 arrays performed on four groups (banded or sham). LysM-Cre mouse hearts were flash-frozen whole, cross-sectioned, and assessed by microscopy for fibrosis and macrophage infiltration. Differences between groups were assessed by ANOVA and t-tests. Correlations were assessed by Spearman correlation.

[2] = system: RV monocytes / macrophages; assay: Cardiac monocytes: LysM-Cre lineage tracing and flow cytometry of RV (Example VII); assay type: in vivo, mice; conditions: LysM-Cre reporter mice, aspirin
Protocol: Both male and female age-matched C57Bl/6 or FVB/NJ mice, obtained by in-house breeding, were used for pulmonary artery banding. LysM-GFP mice were obtained by cross-breeding LysM-Cre×mTomato/GFP reporter mice B6.129P2-Lyz2tm1(cre)Ifo/J (a gift from Tim Blackwell)×Gt(ROSA)26Sortm4(ACTB-tdTomato, -EGFP)Luo (JAX stock #007676). The day following surgery, mice were given either 25 mg/kg/day IFETROBAN (Cumberland Pharmaceuticals Inc., Nashville, TN) in drinking water or normal drinking water (vehicle) for 2 weeks or 6 weeks prior to hemodynamic evaluation. Mice were weighed and water was changed once a week.
TP receptors are also expressed on monocytes, and blockade of these receptors may have immune-specific effects. To determine whether the decrease in fibrosis seen with TP receptor inhibition was due to decreased macrophage infiltration or proliferation in the RV, PAB on LysM-Cre mice expressing eGFP under the LysozymeM promoter was performed, where all cells that have ever had monocyte lineage are labeled with GFP, even if they have later differentiated. […] Transgenic LysM-Cre×flox-mTomato-flox eGFP mice were used to label cells of monocyte derivation in the RV. These mice express a fluorescent red, except in cells derived from monocyte lineage (even if they have later differentiated), which express a fluorescent green. […] Flow sorting of whole RV for circulating markers found a non-significant trend towards an increase in PA-banded mice that was blocked by ifetroban.

[3] = system: pulmonary artery banding (PAB) model of right ventricular pressure overload; assay: PAB model of right ventricular pressure overload: hemodynamics, echocardiography, histology (Example VII); assay type: in vivo; conditions: PAB mice

| SMILES | the same expression changes in the sham surgery group [1] | number of RV monocytes / green (monocyte lineage) cells after PAB [2] | number of RV monocytes / green (monocyte lineage) cells after PAB ([2]; listed as ASA) | replication of the ifetroban results (fibrosis, hypertrophy, TSP-4, TGF-beta) ([3]; low-dose aspirin) | RV fibrosis (Masson's trichrome) ([3]; oral aspirin 10 mg/kg/day, 2 weeks) |
| --- | --- | --- | --- | --- | --- |
| CCCCCNC(=O)c1coc([C@H]2[C@@H](Cc3ccccc3CCC(=O)O)[C@@H]3CC[C@H]2O3)n1 [Ifetroban sodium, [1S-(1α,2α,3α,4α)]-2-[[3-[4-[(Pentylamino)carbonyl]-2-oxazolyl]-7-oxabicyclo[2.2.1]hept-2-yl]methyl]-benzenepropanoic acid, monosodium salt] | not found in the sham surgery group |  |  |  |  |
| CC(=O)Oc1ccccc1C(=O)O [aspirin] |  | appeared to increase the number of RV monocytes | significantly increases numbers of green cells | failed to replicate these results | failed to prevent fibrosis |
